Assay results: patent US20240209036A1, “PEPTIDES AND METHODS OF USE” (priority 2021, published 2024)
“And” between values parts separate entries of the source, which are not always exact repeats. Identical values can stand only once. Ends that are not written are not given here.

How the values were obtained:
[1] = test system: cecal ligation and puncture (CLP) rat model of intestinal necrosis; test: Cecal ligation and puncture (CLP) survival model; format: in vivo; conditions: for survival, multi-dose regimen: CLP rats, 40 mg/kg at 0.5, 24, 48 and 72 hours after surgery
Procedure: The previously established CLP model was utilized with modifications. Male Long-Evans rats (250-300 grams) were induced using 5% isoflurane with oxygen and anesthesia was maintained by isoflurane delivered via nose cone at 1.5-2% with oxygen. Adequate anesthesia was confirmed with a toe pinch. The surgical area (lower abdominal quadrants) was shaved, cleaned with 10% iodine and subsequently cleaned with 70% ethanol for a total of three times. For pain management, buprenorphine-SR (1 mg/kg) was given subcutaneously pre-op. For the surgical procedure, animals were in the supine position with their heads oriented away from the operator. After placing a sterile drape, a longitudinal midline incision (approximately 3-4 cm) was made with a sterile scalpel. After the initial incision, small scissors were used to enter the peritoneal cavity. The linea alba of the abdominal musculature was dissected away for intermuscular incision of fascial and peritoneal layers. The cecum was located and exteriorized, the remainder of the bowel was left in the peritoneal cavity. The mesentery of the cecum was dissected away with care taken to avoid damage to the cecal branch of the ileocecal artery and avoid bleeding complications. The cecum was ligated at 75% using sterile 3-0 non-absorbable suture. The cecum was perforated twice by through-and-through punctures using a sterile 18-gauge needle midway between the ligation and the tip of the cecum in a mesenteric-to-antimesenteric direction. The cecum was relocated into the abdominal cavity. The peritoneum was closed using 4-0 non-absorbable sutures and the skin was closed with sterile metallic wound clips. The animals received 5 mL of prewarmed (37° C.) normal saline subcutaneously for recovery. […] The peptide, consisting of the amino acid sequence […] (SEQ ID NO: 2) with a monodisperse, 24mer polyethylene glycol (PEG) tail, was manufactured by PolyPeptide Group (San Diego, CA) to >95% purity as verified by HPLC and mass spectrometry analysis. Lyophilized RLS-0071 was solubilized in 0.05 M Histidine buffer and pH adjusted to 6.5. […] Animals were monitored every 30 minutes for at least two hours post-surgery. Once bright, alert, and responsive, the animals were placed back into their home cage. A quantitative assessment of morbidity was conducted on the animals twice a day for the duration of the study. (Shrum, B., Anantha, R. V., Xu, S. X. et al. A robust scoring system to evaluate sepsis severity in an animal model. BMC Res Notes 7, 233 (2014). https://doi.org/10.1186/1756-0500-7-233). Scoring criteria included appearance, level of consciousness, activity, response to stimulus, eyes open vs. closed, respiration rate and respiration quality. […] The animals were subsequently monitored at a minimum of twice/day. […]

[2] = test system: free DNA in plasma (biomarker for NETs); test: Plasma free DNA by PicoGreen in CLP rats; format: in vivo, rat; conditions: single dose RLS-0071, 24 hours post-surgery
Procedure: (§1) Blood samples were collected before surgery (pre-bleed) and 24 hours after surgery. Plasma was isolated from the blood and analyzed for free DNA concentration and cytokines levels as described below.
Free DNA was measured by PicoGreen in rat plasma samples as previously described Briefly, plasma samples were diluted in 10 mM Tris-HCl, 1 mM EDTA, pH 8.0 (TE) buffer and 50 uL of each sample was added to the wells along with 50 uL of a 1:200 dilution of PicoGreen (Life Technologies, Carlsbad, CA, USA) and incubated at room temperature for 10 minutes, protected from light. A DNA standard curve was prepared in TE buffer. The fluorescence was then read at an excitation wavelength of 485 nm and an emission wavelength of 520 nm using a BioTek microplate reader. All free DNA measurements were done in triplicate.

IL-6 = test: Plasma IL-6 ELISA in CLP rats; format: in vivo, rat; conditions: single dose RLS-0071, 24 hours post-surgery
Procedure: as §1
The Rat IL-6 ELISA was purchased from R&D Systems. Plasma samples from experimental animals were run according to the manufacturer's instructions. Briefly, diluted rat plasma samples were added to wells pre-coated with capture IL-6 antibodies overnight. The plate was blocked for 60 min at room temperature with 1% BSA. 100 uL of plasma samples (diluted 1:4) or standards was added to the plate and incubated at room temperature for 2 hrs, then any unbound components were removed by washing. Next, 100 μL of detection IL-6 antibody (diluted 1:60) was added and incubated for 2 hrs at room temperature and washed. Next, 100 μL of streptavidin-horseradish peroxidase (HIRP) conjugate (diluted 1:40) was added and incubated in the dark for 20 minutes at room temperature. Following washing, 100 μL of 3,3′,5,5′-tetramethylbenzidine (TMB) substrate was added for approximately 5 minutes at room temperature. The reaction was stopped with the addition of 100 μL of sulfuric acid and absorbance measured at 450 nm using a BioTek microplate reader. Sample concentrations were calculated using an IL-6 standard curve made with 1:2 serial dilutions.

complement system = conditions: previously demonstrated in vitro assays; cited from earlier work

Substance | survival, multi-dose regimen [1] | survival ([1]; male Long-Evans rats, 75% CLP, single dose 40 mg/kg i.v. 30 minutes after surgery, assessed up to 5 days, 40 mg/kg) | increase in survival compared to no-rescue treatment group ([1]; single dose 40 mg/kg i.v. 30 minutes after surgery) | level of free DNA in blood compared to animals not receiving treatment [2] | IL-6 level in blood compared with no-rescue-intervention animals (IL-6) | inhibition of the complement system (complement system)
IALILEPICCQERAA-PEG24 (IALILEPICCQERAA-dPEG24; cysteine pairing not given here) [RLS-0071, 15 amino acid peptide with a C-terminal monodisperse 24-mer PEGylated moiety] | significant increase in survival | 80% and 50% | 2.5 fold | reduction in the level of free DNA | reduction in IL-6 | strong inhibition of the complement system
IALILEP(Sar)CCQERAA (IALILEPXCCQERAA; sarcosine at position 8; MOD_RES (8)..(8) Sarcosine) [RLS-0088, PA peptide with isoleucine at position 8 replaced by sarcosine] | increase in survival | – | – | – | – | –
